System: chick chorioallantoic membrane (CAM)
Assay: Apoptosis markers in CAM blood vessels in vivo (Annexin V, cleaved caspases, TUNEL, DNA gels)
Set-up: species or system chicken
Conditions: bFGF-stimulated CAMs
Procedure: CAM assays were performed as described (Kim et al. (2000) Am. J. Path. 156:1345-1362). Saline or bFGF stimulated CAMs were treated for 24 h with 20 μg anti-α5β1, anti-αvβ3 or control antibodies and then injected intravenously with 50 μl Annexin V-FITC. CAMs were harvested after 2 h, then analyzed by confocal microscopy. Alternatively, CAMs treated as above were excised, minced on ice, and treated with 0.1% dispase/0.1% collagenase for 1 h at 37° C. Single cell suspensions were incubated with FITC-Annexin V and analyzed as described above. bFGF stimulated CAMs were also treated with anti-α5β1 or anti-αvβ3 in the presence or absence of 500 μM caspase-3, -8 or -9 inhibitors. bFGF stimulated CAMs were also transfected with 4 μg N1-GFP, dnPKA or PKAcat expression plasmids. Freshly excised CAMs were homogenized in ice cold RIPA buffer containing protease inhibitors and immunoblotted to detect intact and cleaved caspase 3 or 8. For all treatment groups, n=10. CAMs were fixed with 3.7% paraformaldehyde prior to excision. The average number of blood vessel branch points per treatment group+/−SEM is presented. Some excised CAMs were cryopreserved, cut into 5 μm sections, immunostained with anti-cleaved caspase 3, anti-cleaved caspase 8 and anti-VFW antibodies (to detect blood vessels). CAMs were also stained by the TUNEL method to detect fragmented DNA.

In the case of `CCCC(=O)Nc1ncnc2c1ncn2[C@@H]1O[C@@H]2COP(=O)(O)O[C@H]2[C@H]1OC(=O)CCC` [dibutyryl cAMP], the “endothelial cell apoptosis in vivo (TUNEL staining)” value is reported as “induces endothelial cell apoptosis in vivo”.

— patent US20060241067A1, “Methods For inhibiting angiogenesis, cell migration, cell adhesion, and cell survival” (priority 2002, published 2006)
